Assay results: ChEMBL document CHEMBL3108693, “Design, synthesis, and osteogenic activity of daidzein analogs on human mesenchymal stem cells” (2014)
Active and inactive are the calls of the source. The calls are words filed in the database; no cut-off is given here.

Tests used:
Format in all cases: functional
MSC [1] = test: Induction of osteogenic activity in human MSC assessed as cell differentiation after 14 days by alizarin red staining-based spectrometry relative to vehicle-treated control
[2] = (§1) Induction of osteogenic activity in human MSC assessed as cell differentiation at 1 uM after 14 days by alizarin red staining-based spectrometry relative to vehicle-treated control
MSC [3] = test: Induction of osteogenic activity in human MSC assessed as cell differentiation at 1 uM after 7 days by alizarin red staining-based spectrometry relative to vehicle-treated control
MSC [4] = test: Induction of osteogenic activity in human MSC assessed as cell differentiation at 10 nM after 14 days by alizarin red staining-based spectrometry
MSC [5] = test: Induction of osteogenic activity in human MSC assessed as increase in ON level at 1 uM after 14 days by quantitative RT-PCR analysis relative to control
MSC [6] = test: Induction of osteogenic activity in human MSC assessed as increase in Dlx5 level at 1 uM after 14 days by quantitative RT-PCR analysis relative to control
MSC [7] = test: Induction of osteogenic activity in human MSC assessed as increase in cFOS level at 1 uM after 14 days by quantitative RT-PCR analysis relative to control
MSC [8] = test: Induction of osteogenic activity in human MSC assessed as increase in cbfa1 level at 1 uM after 14 days by quantitative RT-PCR analysis relative to control
MSC [9] = test: Induction of osteogenic activity in human MSC assessed as increase in Cola1 level at 1 uM after 14 days by quantitative RT-PCR analysis relative to control
MSC [10] = test: Induction of osteogenic activity in human MSC assessed as increase in IGF1 level at 1 uM after 14 days by quantitative RT-PCR analysis relative to control
MSC [11] = test: Induction of osteogenic activity in human MSC assessed as increase in OP level at 1 uM after 14 days by quantitative RT-PCR analysis relative to control
MSC [12] = test: Induction of osteogenic activity in human MSC assessed as increase in Sp7 level at 1 uM after 14 days by quantitative RT-PCR analysis relative to control
MSC [13] = test: Induction of osteogenic activity in human MSC assessed as increase in ALP level at 1 uM after 14 days by quantitative RT-PCR analysis relative to control
MSC [14] = test: as §1

SMILES	Activity (MSC [1])	fold change (FC) [2]	also measured
COc1ccc(C(=O)Nc2ccc(OCC(C)C)cc2)c(OC)c1	Dose-dependent effect	1.6	–
COc1ccc(C(=O)Nc2ccc(O)cc2)c(OC)c1	Dose-dependent effect	1.3	–
COc1ccc(NC(=O)c2ccc(OC)cc2OC)cc1	Dose-dependent effect	1.3	–
CCCCOc1ccc2c(=O)c(-c3ccc(O)cc3)coc2c1	Dose-dependent effect	1.3	–
C#CCOc1ccc2c(=O)c(-c3ccc(O)cc3)coc2c1	Dose-dependent effect	1.6	–
C=CCOc1ccc2c(=O)c(-c3ccc(O)cc3)coc2c1	Dose-dependent effect	1.3	Activity (MSC [3]): Active
Cc1cc2c(ccc3c(=O)c(-c4ccc(O)cc4)coc32)o1	Dose-dependent effect	1.6	–
O=c1c(-c2ccc(O)cc2)coc2cc(OCCN3CCCCC3)ccc12	Dose-dependent effect	>2.4	–
CC1(C)CCc2c(ccc3c2OCC(c2ccc(O)cc2)C3)O1 (centres undefined)	Dose-dependent effect	–	–
CN(C)CCOc1ccc2c(=O)c(-c3ccc(O)cc3)coc2c1	Dose-dependent effect	–	–
CCCCOc1ccc2c(c1)OCC(c1ccc(O)cc1)C2 (centres undefined)	Dose-dependent effect	–	–
CC1(C)C=Cc2c(ccc3c(=O)c(-c4ccc(O)cc4)coc23)O1	Dose-dependent effect	–	–
CC#C[C@]1(O)CC[C@H]2[C@@H]3CCc4cc(O)ccc4[C@H]3CC[C@@]21C	–	–	Activity (MSC [4]): Active
CCOc1ccc2c(=O)c(-c3ccc(O)cc3)coc2c1	Dose-dependent effect	1.6	–
CC(C)Oc1ccc2c(=O)c(-c3ccc(O)cc3)coc2c1	Dose-dependent effect	1.6	–
CC1(C)C=Cc2cc3c(cc2O1)OCC(c1ccc(O)cc1)C3 (centres undefined)	Dose-dependent effect	1.3	–
CC(C)COc1ccc2c(=O)c(-c3ccc(O)cc3)coc2c1	Dose-dependent effect	1.3	Activity (MSC [3]): Active
CCCOc1ccc2c(=O)c(-c3ccc(O)cc3)coc2c1	Dose-dependent effect	1.3	Activity (MSC [5]): inactive; Activity (MSC [6]): inactive; Activity (MSC [7]): inactive; Activity (MSC [8]): inactive; Activity (MSC [9]): Active; Activity (MSC [10]): Active; Activity (MSC [11]): Active; Activity (MSC [12]): Active; Activity (MSC [13]): Active; Activity (MSC [3]): Active
CCCCCCOc1ccc2c(=O)c(-c3ccc(O)cc3)coc2c1	Dose-dependent effect	1.3	–
O=c1c(-c2ccc(O)cc2)coc2cc(OC3CCCC3)ccc12	Dose-dependent effect	1.3	Activity (MSC [3]): Active
CC1(C)C=Cc2c(ccc3c(=O)c(-c4ccc(B5OC(C)(C)C(C)(C)O5)cc4)coc23)O1	Dose-dependent effect	–	–
CC1(C)CCc2c(ccc3c2OCC(c2ccc(O)cc2)C3=O)O1 (centres undefined)	Dose-dependent effect	1.6	–
O=c1c(-c2ccc(O)cc2)coc2cc(O)ccc12	Dose-dependent effect	–	Activity (MSC [14]): Active
O=c1c(-c2ccc(O)cc2)coc2cc(OCCN3CCCC3)ccc12	Dose-dependent effect	–	–
